Experimental data as given in US20150094264A1, “USE OF OBESTATIN FOR MUSCLE REGENERATION” (UNIVERSIDADE DE SANTIAGO DE COMPOSTELA, priority 2012, published 2015).
Entries after “also recorded” stand apart in the source; their conditions may differ.

Key:
[1] = test system: damaged tibialis anterior of mouse; experiment: Blood vessels (isolectin positive) per myofiber in damaged tibialis anterior of mouse; type: in vivo, Swiss mice; settings: 300 nmol/kg/24 h; 10 days after induction of muscle damage
Procedure: FIG. 13. Quantification of the blood vessels per myofiber in the tibialis anterior 10 days after the induction of muscle damage and exogenous treatment of obestatin (300 nmol/kg/24 h) or vehicle (PBS). Quantification of the number of blood vessels (immunofluorescence: positivity to isolectin) per myofiber (mean±standard error; *, p<0.005) of sections of the tibialis anterior treated with obestatin (300 nmol/kg/24 h) or PBS (control) 10 days after inducing the damage.
(§1) For the tissue immunofluorescence analysis, frozen sections were obtained which were fixed using a buffered solution of PBS-paraformaldehyde during 15 min, washed, permeabilized and blocked with PBT during 30 min, and later incubated with the corresponding primary antibody (anti-eMHC, anti-laminin antibody) diluted in PBT (1:50) during 12 h at 4° C. After three washes with PBS, the tissue sections were incubated with secondary antibody in PBT (1:1000) during 45 min at 37° C. […] The digital images of the cell culture were acquired with a Leica TCS-SP2 confocal microscope.
(§2) The mice (30 g; n=50) were maintained in 12 h light-darkness cycled with free access to standard diet and water. To induce the muscle damage, the tibialis anterior muscle (TA) was extracted under anaesthesia and subjected to three cycles of damage due to cold contact applying along the length of the muscle a metal bar cooled in liquid nitrogen. […]

[2] = test system: damaged tibialis anterior of mouse; experiment: Histological (hematoxylin/eosin) analysis of muscle regeneration in damaged tibialis anterior of mouse; type: in vivo, Swiss mice; settings: 300 nmol/kg weight local
Procedure: FIG. 9. Immunohistochemical analysis of the effect of the exogenous administration of obestatin on the capacity for muscle regeneration in the damaged tibialis anterior of mouse (animal model). The images shown are representative of the sections of the damaged tibialis anterior muscle (hematoxylin/eosin staining) under the local exogenous administration of obestatin (300 nmol/kg/24 h) or PBS (control) 48, 96, 168 and 240 h after inducing the damage. The images show the area of damage and regeneration at the indicated times.
FIG. 10. Quantitative analysis of the areas of the regenerative fibres of the tibialis anterior 96 and 168 hours after inducing the damage and exogenous administration of obestatin or PBS (control). The analysis corresponds to the area of regeneration myofibers in the tibialis anterior. For this purpose, an immunohistochemical analysis was performed by staining with hematoxylin/eosin and later quantification of the area of the myofiber by the use of the ImageJ64 program (n=10 per group; mean±standard error; *, p<0.005).
The muscle samples were mounted in a cold freezing medium [Tragacanth; Santa Cruz Biotechnology (CA, USA)] and frozen in a mixture of nitrogen-isopentane. The tissue sections were obtained by serial cuts with a cryostat (10 μm) and were mounted in adhesion slides for histochemistry (Marienfeld, Lauda-Konigshofen, Germany). The sections fixed were stained with hematoxylin/eosin. The quantification of the area of the regenerative myofibers was performed by using ImageJ64 analysis software.
The mice (30 g; n=50) were maintained in 12 h light-darkness cycled with free access to standard diet and water. To induce the muscle damage, the tibialis anterior muscle (TA) was extracted under anaesthesia and subjected to three cycles of damage due to cold contact applying along the length of the muscle a metal bar cooled in liquid nitrogen. The damaged muscles were treated locally with obestatin injection (300 nmol/kg weight) or the corresponding vehicle (PBS; control) during the times indicated in 24 h intervals. […]

Akt = experiment: Activation of Akt [pAkt(S473)] by obestatin in L6E9 myoblasts, immunoblot; type: cell-based, rat
Procedure: (§3) FIG. 1. Activation of regulatory enzymes of mitogenesis and myogenesis by obestatin in L6E9 myoblasts and myotubes. Effect of obestatin on activity of regulatory enzymes of the mitogenic capacity (ERK 1/2), metabolic capacity (Akt and AMPK) and myogenic capacity (Akt and p38). Based on a dose-response study, the saturating dose for the maximum enzymatic activation is established for a concentration of 5 nM. […] Inactivation of AMPK is described in both cell models. The activation profile discovers bimodal characteristics for the action of obestatin: 1.—mitogenic activation in myoblasts; and, 2.—myogenic activation. The immunoblots are representative of 6 independent assays.
(§4) The studies were performed based on the use of L6E9 rat myoblasts which were maintained in growth medium (GM) formed by DMEM (Dulbecco's Modified Eagle Medium) supplemented with 10% fetal bovine serum (FBS), 100 U/mL penicillin, and 100 U/mL streptomycin. For the differentiation, the cells were cultured at 80-100% of confluence in GM and it was replaced for differentiation medium (DM) formed by DMEM supplemented with 2% FBS, 100 U/mL penicillin, and 100 U/mL streptomycin during 6 days.
(§5) The tissue or cell samples were directly lysed in RIPA buffer [Tris-HCl (pH 7.2), 50 mM; NaCl, 150 mM; EDTA, 1 mM; NP-40, 1% (v/v); Sodium deoxycholate, 0.25% (w/v); protease inhibitors (Sigma); phosphatise inhibitors (Sigma)]. The lysates were clarified by centrifugation (14,000×g during 15 min at 4° C.) and the protein concentration was quantified using QuantiPro™ BCA assay kit (Sigma). For immunoblot, equal amounts of protein were loaded which were fractionated in SOS-PAGE gels and transferred to nitrocellulose membranes. The immunoreactive bands were detected by chemiluminescence (Pierce ECL Western Blotting Substrate; Thermo Scientific, Ill., USA).
(§6) To define the mitogenic and myogenic effect of obestatin, the activation capacity was studied of intracellular targets regulating proliferation (ERK1/2) and/or differentiation (p38 and Akt). […]

AMPKa = experiment: Dephosphorylation/inactivation of AMPKa [pAMPKa(T172)] by obestatin in L6E9 cells, immunoblot; type: cell-based, rat; settings: obestatin 5 nM; L6E9 myoblasts (both cell models)
Procedure: as §3, with “assays. […]” for “assays.”
The tissue or cell samples were directly lysed in RIPA buffer [Tris-HCl (pH 7.2), 50 mM; NaCl, 150 mM; EDTA, 1 mM; NP-40, 1% (v/v); Sodium deoxycholate, 0.25% (w/v); protease inhibitors (Sigma); phosphatise inhibitors (Sigma)]. The lysates were clarified by centrifugation (14,000×g during 15 min at 4° C.) and the protein concentration was quantified using QuantiPro™ BCA assay kit (Sigma). […] The immunoreactive bands were detected by chemiluminescence (Pierce ECL Western Blotting Substrate; Thermo Scientific, Ill., USA). […]

ERK 1/2 = experiment: Activation of ERK 1/2 [pERK1/2(T202/Y204)] by obestatin in L6E9 myoblasts, immunoblot; type: cell-based, rat
Procedure: as §3, §4, §5, §6

[3] = test system: damaged tibialis anterior of mouse; experiment: Immunofluorescence analysis of eMHC expression in damaged tibialis anterior of mouse; type: in vivo, Swiss mice; settings: 300 nmol/kg weight; 96 h
Procedure: FIG. 11. Immufluorescence analysis of the effect of the exogenous administration of obestatin (96 h) on eMHC expression in the damaged tibialis anterior of mouse (animal model). Representative images of eMHC expression by immunofluorescence of sections of the tibialis anterior treated with obestatin (300 nmol/kg/24 h) or PBS (control) 96 h after inducing the damage. The upper panels correspond to staining with anti-eMHC antibody and the lower panels to staining with DAPI.
as §1, §2

For obestatin, the “capillary density (isolectin-positive blood vessels per myofiber) in relation to vehicle (PBS)” value [1] was “significant increase”, the “regenerative process (restructuring of the myofibers in the area of damage) in relation to controls” value ([2]; 48, 96, 168 and 240 h) was “acceleration” and the “area of the regenerative fibres in the tibialis anterior in relation to controls” value ([2]; 96 and 168 h after the treatment) was “significant increase”. For the same substance, the “calibre of the regenerative myofibers in relation to controls” value ([2]; hematoxylin/eosin sections) was “significant increase”, the “obestatin concentration at which activation of Akt [pAkt(S473)] was observed” value (Akt) was 0.1 nM and the “obestatin concentration at which pAkt(S473) phosphorylation levels reached saturable values” (Akt; dose-response) was 5 nM. For the same substance, the “time post-stimulation of maximum pAkt(S473) levels” value (Akt; obestatin 5 nM) was 10 min, the “effect on AMPKa phosphorylation in T172 [pAMPKa(T172)]” value (AMPKa) was “Inactivation; also recorded: dephosphorylates” and the “obestatin concentration at which activation of ERK 1/2 [pERK1/2(T202/Y204)] was observed” value (ERK 1/2) was 0.1 nM. The “obestatin concentration at which pERK1/2(T202/Y204) phosphorylation levels reached saturable values” (ERK 1/2; dose-response) was 5 nM, the “time post-stimulation of maximum pERK1/2(T202/Y204) levels” value (ERK 1/2; obestatin 5 nM) was 10 min and the “eMHC expression by immunofluorescence in relation to controls” value [3] was “significantly increases”.
